Test results: patent US20260365682A1, “MODULATORS OF TNF-ALPHA ACTIVITY” (Forward Therapeutics, Inc., priority 2022, published 2026)

The compounds below were run against T1, TNF-α (Homo sapiens, UniProt P01375) (assay: TNF-α Induced HEK Blue Cellular Assay (secreted alkaline phosphatase expression, QUANTI-Blue)). Settings: HEK Blue TNFα reporter cells; TNF-α 100 μg/ml; 24 hrs at 37° C.; inhibition of secreted alkaline phosphatase; read-out: IC50 value.
T1 construct: purchased R&D 210-TA-020/CF
Type: cell-based
Procedure: TNF-α Induced HEK Blue Cellular Assay
Test articles were diluted in DMSO and serially diluted into 384 well assay plate (Corning 3765), at final concentrations ranging from […] to 0.5 nM. HEK Blue™ TNFα reporter cells were added at a final density of 10,000 cell per well in assay media [DMEM (Gibco, cat #21063-029), 10% fetal bovine serum (ExcelBio, cat #FND500), 1% Penicillin-Streptomycin (Solarbio, cat #P1400-100]. TNF-α (R&D 210-TA-020/CF) was then added to the assay plate at a final concentration of […]. This plate was then incubated for 24 hrs at 37° C. and 5% CO2. Secreted alkaline phosphatase expression was then measured using QUANTI-Blue™ (Invivogen), according to manufacturer instructions and read on an Envision microplate reader at 620 nm.
Inhibition data for test compound over a range of concentration was plotted as percentage inhibition of the test compound (100%=maximum inhibition). IC50 values were determined after correcting for background [(sample read-mean of low control)/(mean of high control-mean of low control)] whereby the low control is DMSO without stimulation and high control is DMSO with stimulation. The IC50 is defined as the concentration of test compound which produces 50% inhibition and was quantified using the 4 parameter logistic equation to fit the data.

T1 sequence (P01375 77-233 limits assumed): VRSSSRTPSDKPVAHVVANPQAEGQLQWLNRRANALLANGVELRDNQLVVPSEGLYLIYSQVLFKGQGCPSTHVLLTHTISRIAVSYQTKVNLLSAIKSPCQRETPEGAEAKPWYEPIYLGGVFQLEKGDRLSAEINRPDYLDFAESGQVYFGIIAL

Row | IC50 [µM] | SMILES
1 | < 0.1 | [2H]C([2H])([2H])N1C(=O)c2cccc(OC(F)F)c2[C@H]2C[C@@H]1c1nc3ccc(C#CC4(O)CCOCC4)cc3n12 [Example 97, (7R,14R)-1-(difluoromethoxy)-11-((4-hydroxytetrahydro-2H-pyran-4-yl)ethynyl)-6-(methyl-d3)-6,7-dihydro-7,14-methanobenzo[f]benzo[4,5]imidazo[1,2-a][1,4]diazocin-5(14H)-one]
2 | < 0.1 | [2H]C([2H])([2H])N1C(=O)c2cccc(OC(F)F)c2[C@H]2C[C@@H]1c1nc3ccc(C#CC4CCCN(C(C)=O)C4)cc3n12 (stereo partly drawn) [Example 183, (7R,14R)-11-((1-acetylpiperidin-3-yl)ethynyl)-1-(difluoromethoxy)-6-(methyl-d3)-6,7-dihydro-7,14-methanobenzo[f]benzo[4,5]imidazo[1,2-a][1,4]diazocin-5(14H)-one]
3 | < 0.1 | [2H]C([2H])([2H])N1C(=O)c2cccc(OC(F)F)c2[C@H]2C[C@@H]1c1nc3ccc(C#CC4CC(F)(F)C4)cc3n12 [Example 150, (7R,14R)-11-((3,3-difluorocyclobutyl)ethynyl)-1-(difluoromethoxy)-6-(methyl-d3)-6,7-dihydro-7,14-methanobenzo[f]benzo[4,5]imidazo[1,2-a][1,4]diazocin-5(14H)-one]
4 | < 0.1 | [2H]C([2H])([2H])N1C(=O)c2cccc(OC(F)F)c2[C@H]2C[C@@H]1c1nc3ccc(C#CCC(C)OC)cc3n12 (single isomer, unassigned) [Example 149, (7R,14R)-1-(difluoromethoxy)-11-((S or R)-4-methoxypent-1-yn-1-yl)-6-(methyl-d3)-6,7-dihydro-7,14-methanobenzo[f]benzo[4,5]imidazo[1,2-a][1,4]diazocin-5(14H)-one]
5 | < 0.1 | [2H]C([2H])([2H])N1C(=O)c2cccc(OC(F)F)c2[C@H]2C[C@@H]1c1nc3ccc(C#CCCC(F)F)cc3n12 [Example 132, (7R,14R)-1-(difluoromethoxy)-11-(5,5-difluoropent-1-yn-1-yl)-6-(methyl-d3)-6,7-dihydro-7,14-methanobenzo[f]benzo[4,5]imidazo[1,2-a][1,4]diazocin-5(14H)-one]
6 | 0.1 to 1 | [2H]C([2H])([2H])N1C(=O)c2cccc(OC(F)F)c2[C@H]2C[C@@H]1c1nc3ccc(C#CCCNC)cc3n12 [Example 151, (7R,14R)-1-(difluoromethoxy)-6-(methyl-d3)-11-(4-(methylamino)but-1-yn-1-yl)-6,7-dihydro-7,14-methanobenzo[f]benzo[4,5]imidazo[1,2-a][1,4]diazocin-5(14H)-one]
7 | 10 to 30 | [2H]C([2H])([2H])N1C(=O)c2cccc(OC(F)F)c2[C@H]2C[C@@H]1c1nc3ccc(C#CC4CCN(C(=O)C5CC5)C4)cc3n12 (stereo partly drawn) [Example 201, (7R,14R)-11-((1-(cyclopropanecarbonyl)pyrrolidin-3-yl)ethynyl)-1-(difluoromethoxy)-6-(methyl-d3)-6,7-dihydro-7,14-methanobenzo[f]benzo[4,5]imidazo[1,2-a][1,4]diazocin-5(14H)-one]
8 | < 0.1 | [2H]C([2H])([2H])N1C(=O)c2cccc(OC(F)F)c2[C@H]2C[C@@H]1c1nc3ccc(C#CC(O)CC(C)(C)O)cc3n12 (single isomer, unassigned) [Example 222, (7R,14R)-1-(difluoromethoxy)-11-((R or S)-3,5-dihydroxy-5-methylhex-1-yn-1-yl)-6-(methyl-d3)-6,7-dihydro-7,14-methanobenzo[f]benzo[4,5]imidazo[1,2-a][1,4]diazocin-5(14H)-one]
9 | < 0.1 | Cn1nncc1C#Cc1ccc2nc3n(c2c1)[C@@H]1C[C@H]3NC(=O)c2cccc(OC(F)F)c21 [Example 19, (7R,14R)-1-(difluoromethoxy)-11-((1-methyl-1H-1,2,3-triazol-5-yl)ethynyl)-6,7-dihydro-7,14-methanobenzo[f]benzo[4,5]imidazo[1,2-a][1,4]diazocin-5(14H)-one]
10 | < 0.1 | [2H]C([2H])([2H])N1C(=O)c2cccc(OC(F)F)c2[C@H]2C[C@@H]1c1nc3ccc(C#CC4(F)CN(C5COC5)C4)cc3n12 [Example 252, (7R,14R)-1-(difluoromethoxy)-11-((3-fluoro-1-(oxetan-3-yl)azetidin-3-yl)ethynyl)-6-(methyl-d3)-6,7-dihydro-7,14-methanobenzo[f]benzo[4,5]imidazo[1,2-a][1,4]diazocin-5(14H)-one]
11 | < 0.1 | [2H]C([2H])([2H])N1C(=O)c2cccc(OC(F)F)c2[C@H]2C[C@@H]1c1nc3ccc(C#CC4CCN(S(C)(=O)=O)CC4)cc3n12 [Example 185, (7R,14R)-1-(difluoromethoxy)-6-(methyl-d3)-11-((1-(methylsulfonyl)piperidin-4-yl)ethynyl)-6,7-dihydro-7,14-methanobenzo[f]benzo[4,5]imidazo[1,2-a][1,4]diazocin-5(14H)-one]
12 | < 0.1 | [2H]C([2H])([2H])N1C(=O)c2cccc(OC(F)F)c2[C@H]2C[C@@H]1c1nc3ccc(C#CC4CN(C)C4)cc3n12 [Example 68, (7R,14R)-1-(difluoromethoxy)-6-(methyl-d3)-11-((1-methylazetidin-3-yl)ethynyl)-6,7-dihydro-7,14-methanobenzo[f]benzo[4,5]imidazo[1,2-a][1,4]diazocin-5(14H)-one]
13 | 0.1 to 1 | [2H]C([2H])([2H])N1C(=O)c2cccc(OC(F)F)c2[C@H]2C[C@@H]1c1nc3ccc(C#C[C@H](C)O)cc3n12 [Example 169, (7R,14R)-1-(difluoromethoxy)-11-((S)-3-hydroxybut-1-yn-1-yl)-6-(methyl-d3)-6,7-dihydro-7,14-methanobenzo[f]benzo[4,5]imidazo[1,2-a][1,4]diazocin-5(14H)-one]
14 | < 0.1 | [2H]C([2H])([2H])N1C(=O)c2cccc(OC(F)F)c2[C@H]2C[C@@H]1c1nc3ccc(C#CC4CN(C(=O)C(C)(C)C)C4)cc3n12 [Example 125, (7R,14R)-1-(difluoromethoxy)-6-(methyl-d3)-11-((1-pivaloylazetidin-3-yl)ethynyl)-6,7-dihydro-7,14-methanobenzo[f]benzo[4,5]imidazo[1,2-a][1,4]diazocin-5(14H)-one]
15 | < 0.1 | CN1C(=O)c2cccc(OC(F)F)c2[C@H]2C[C@@H]1c1nc3ccc(C#Cc4cnn(C)c4)cc3n12 [Example 1, (1R,11R)-18-(difluoromethoxy)-12-methyl-5-[2-(1-methylpyrazol-4-yl)ethynyl]-2,9,12-triazapentacyclo[9.8.1.0^∧{2,10}.0^∧{3,8}. 0^∧{14,19}]icosa-3(8),4,6,9,14(19),15,17-heptaen-13-one]
16 | < 0.1 | [2H]C([2H])([2H])N1C(=O)c2cccc(OC(F)F)c2[C@H]2C[C@@H]1c1nc3ccc(C#CC4CCN(C(=O)C5CC5)CC4)cc3n12 [Example 174, (7R,14R)-11-((1-(cyclopropanecarbonyl)piperidin-4-yl)ethynyl)-1-(difluoromethoxy)-6-(methyl-d3)-6,7-dihydro-7,14-methanobenzo[f]benzo[4,5]imidazo[1,2-a][1,4]diazocin-5(14H)-one]
17 | < 0.1 | [2H]C([2H])([2H])N1C(=O)c2cccc(OC(F)F)c2[C@H]2C[C@@H]1c1nc3ccc(C#CCCC#N)cc3n12 [Example 87, 5-((7R,14R)-1-(difluoromethoxy)-6-(methyl-d3)-5-oxo-5,6,7,14-tetrahydro-7,14-methanobenzo[f]benzo[4,5]imidazo[1,2-a][1,4]diazocin-11-yl)pent-4-ynenitrile]
18 | 0.1 to 1 | [2H]C([2H])([2H])N1C(=O)c2cccc(OC(F)F)c2[C@H]2C[C@@H]1c1nc3ccc(C#CC(C)C)cc3n12 [Example 75, (7R,14R)-1-(difluoromethoxy)-6-(methyl-d3)-11-(3-methylbut-1-yn-1-yl)-6,7-dihydro-7,14-methanobenzo[f]benzo[4,5]imidazo[1,2-a][1,4]diazocin-5(14H)-one]
19 | 10 to 30 | [2H]C([2H])([2H])N1C(=O)c2cccc(OC(F)F)c2[C@H]2C[C@@H]1c1nc3ccc(C#CC(C)(C)N)cc3n12 [Example 64, (7R,14R)-11-(3-amino-3-methylbut-1-yn-1-yl)-1-(difluoromethoxy)-6-(methyl-d3)-6,7-dihydro-7,14-methanobenzo[f]benzo[4,5]imidazo[1,2-a][1,4]diazocin-5(14H)-one]

Same assay, conditions: IC50 value, HEK Blue TNFα reporter cells; TNF-α 100 μg/ml; 24 hrs at 37° C.; inhibition of secreted alkaline phosphatase

Row | IC50 [µM] | SMILES
20 | < 0.1 | [2H]C([2H])([2H])N1C(=O)c2cccc(OC(F)F)c2[C@H]2C[C@@H]1c1nc3ccc(C#CCNC4COC4)cc3n12 [Example 242, (7R,14R)-1-(difluoromethoxy)-6-(methyl-d3)-11-(3-(oxetan-3-ylamino)prop-1-yn-1-yl)-6,7-dihydro-7,14-methanobenzo[f]benzo[4,5]imidazo[1,2-a][1,4]diazocin-5(14H)-one]
21 | < 0.1 | [2H]C([2H])([2H])N1C(=O)c2cccc(OC(F)F)c2[C@H]2C[C@@H]1c1nc3ccc(C#CCCC)cc3n12 [Example 88, (7R,14R)-1-(difluoromethoxy)-6-(methyl-d3)-11-(pent-1-yn-1-yl)-6,7-dihydro-7,14-methanobenzo[f]benzo[4,5]imidazo[1,2-a][1,4]diazocin-5(14H)-one]
